# From patent publication US8952025B2, “Multifunctional radical quenchers and their uses” (Arizona Board of Regents, A Body Corporate of the State of …, priority 2010, dated 2015)
# Entries after “also recorded” stand apart in the source; their conditions may differ.
# Experiments:
# [1] = test system: cytochrome c; experiment: Cytochrome c reduction assay; type: biochemical; conditions: 100 μM compound, 10 μM cytochrome c, absorbance 550 nm
# Procedure: The rate of cytochrome c (10 μM) reduction was measured by monitoring the change in absorbance at 550 nm. Briefly the reaction was initiated by addition of 100 μM of the invention compounds to a mixture containing 50 mM phosphate buffer, 0.1 mM EDTA, pH 7.8, and 10 μM cytochrome c (Sigma, St. Louis, Mo. USA). For cytochrome c reduction by superoxide, xanthine oxidase (0.01 IU/mL) (Sigma, St. Louis, Mo. USA) was used in presence of xanthine (50 μM).
# [2] = test system: Human CEM leukemia cells; experiment: Live/Dead Viability/Cytotoxicity flow cytometry assay; type: cell-based; conditions: overnight incubation, then DEM 3 hours
# Procedure: Cell viability and cytotoxicity were determined by simultaneous staining live and dead cells using a two-color fluorescence assay, the Live/Dead® Viability/Cytotoxicity Kit (Molecular Probes). This assay is used to measure two recognized parameters of cell viability, intracellular esterase activity and plasma integrity. The membrane-impermeant DNA dye ethidium homodimer-1 (EthD-1) was used to identify dead cells whose plasma membrane integrity was disrupted. The membrane-permeant dye calcein-AM was used to label live cells. It penetrates into the cells where it is metabolized by cytoplasmic esterases and becomes a fluorescent but membrane-impermeant probe which is retained in viable cells. Human CEM leukemia cells were incubated overnight in RPMI medium (control) and in the presence of test compound and then treated with DEM for 3 hours. Cells were stained with 0.2 μM calcein-AM and 0.4 μM EthD-1. After 15 minutes, flow cytometry analysis was carried out using excitation at 488 nm. The green-fluorescent (539 nm) FL1-H channel, live-cell population appears in the lower right quadrant and the red-fluorescent (585 nm) FL2-H channel dead-cell population appears in the upper left quadrant (FIG. 11). In each analysis, 10,000 events were recorded. Results obtained were verified in three independent experiments.
# [3] = Stability of isolated free base on storage; type: physicochemical; conditions: orange oil
# Procedure: To a solution of 2.2 mg (4.4 μmol) acetyl ester 35 in 1 mL CH2Cl2 was added 17.5 μL (17.5 μmol) of DIBAL-H at −78° C. The reaction mixture was stirred at same temperature for 2 h than 1 mL of aqueous saturated sodium potassium tartrate was added slowly. The reaction mixture was allowed to warm to room temperature slowly add stirred for 3 h then separated. The aqueous layer was extracted with two portions of 5 mL of ethyl acetate. The combined organic layer was washed with brine, dried (Na2SO4) and concentrated under diminished pressure to give the product C as orange oil. HPLC found retain time in 21.82 min.
# [4] = test system: CEM leukemia cells; experiment: C11-BODIPY581/591 oxidation in cell culture (lipid peroxidation); type: cell-based, human; conditions: 2.5 or 1 μM, pretreatment 4 or 24 hours, glutathione depleted
# Procedure: Lipid peroxidation in CEM leukemia cells was detected by utilizing the oxidant-sensitive lipophilic probe C11 BODIPY^581/591. Briefly, CEM cells (5×10^5 cell/mL) were treated with the test compounds at final concentrations of 1 and 2.5 μM, and incubated at 37° C. for 4 or 24 h in a humidified atmosphere containing 5% CO2 in air. Cells were treated with 500 nM C11 BODIPY^581/591 in phenol red-free RPMI-1640 media and incubated at 37° C. in the dark for 30 minutes. The cells were washed twice with phosphate buffered saline and oxidative stress was induced with 5 mM DEM in phenol red-free RPMI-1640 media for 90 minutes. Treated cells were collected by centrifugation at 300×g for 3 minutes and then washed twice with phosphate buffered saline. Cells were resuspended in 250 μL of phosphate buffered saline and were analyzed by FACS (FACS Calibur flow cytometer, Becton Dickinson) to monitor the change in intensity of the C11 BODIPY^581/591-green (oxidized) fluorescence signal.
# [5] = test system: bovine heart mitochondrial membranes; experiment: Thiobarbituric acid reactive species (TBARS) assay; type: biochemical; conditions: H2O2 generated using glucose oxidase
# Procedure: Lipid peroxidation by hydrogen peroxide in bovine heart mitochondrial membranes was determined by measuring the amount of thiobarbituric acid reactive substances released. Bovine heart mitochondria (1 mg protein) prepared as described by Smith (38) were added to 800 μL of 50 mM phosphate buffer, pH 8.0, and subjected to oxidative stress by the addition of 25 mM glucose and 1 U/mL glucose oxidase from Aspergillus niger. Samples were incubated with or without test compounds at 37° C. for 30 minutes. Two hundred μL each of 1% (w/v) thiobarbituric acid and 35% (v/v) perchloric acid, as well as 0.1% (w/v) butylated hydroxytoluene (from a 2% stock solution in DMSO) were added. Samples were heated at 100° C. for 15 minutes. One-mL aliquots of each sample were taken and diluted in 2 mL of water, then extracted once with 2 mL of n-butanol. […] TBARS were determined fluorometrically from the emission spectrum (λex 515 nm; λem 550 nm) using a Varian fluorimeter. The malondialdehyde concentration was determined based on a standard curve created using serial dilutions of 10 mM 1,1,3,3-tetraethoxypropane hydrolyzed in 1% (v/v) H2SO4 at 4° C. overnight. The malondialdehyde concentration was expressed as nmoles manoldialdehyde per mg protein. Protein in aliquots of the homogenates was determined by the bicinchoninic acid method.
SMILES,reduction of cytochrome c [1],"maintaining cell viability (Live/Dead kit, flow cytometry) [2]",stability of isolated compound [3],protection against lipid peroxidation in cells (C11-BODIPY581/591 green fluorescence) [4],preventing TBARS formation [5]
"Cc1nc(N(C)C)nc(CCCCCCCCCCO)c1O [Compound A, 2-N,N-dimethylamino-5-hydroxy-4-methyl-6-(10-hydroxydecyl)-pyrimidine]",clearly reduce cytochrome c,,,,
"Cc1nc2c(c(CC[C@](C)(O)CCC[C@H](C)CCC[C@H](C)CCCC(C)C)c1O)CCN2C [Compound C, 4-((3R,7R,11R)-3-hydroxy-3,7,11,15-tetramethylhexadecyl)-1,6-dimethyl-2,3-dihydro-1H-pyrrolo[2,3-b]pyridine-5-ol]",,"both effective in maintaining cell viability following treatment with DEM, with compound C being somewhat more effective; also recorded: superiority of compound C",degenerated after one day,better protection against lipid peroxidation than α-tocopherol in a concentration and time-dependent fashion; also recorded: clearly superior to α-tocopherol in quenching lipid peroxidation in a time- and dose-dependent fashion,more effective in preventing TBARS formation
"Cc1c(C)c2c(c(C)c1O)CC[C@@](C)(CCC[C@H](C)CCC[C@H](C)CCCC(C)C)O2 [α-tocopherol, reference compound]",,effective in maintaining cell viability following treatment with DEM,,,
